Tests used:
[1] = test system: CD34+ bone marrow progenitor cells; settings: for increase in F-cells over untreated cultures, combination with HU: in combination with 5 μM HU, Phase II only (FIG. 3B)
γ-globin = γ-globin mRNA expression by quantitative PCR in K562 cells; format: cell-based, human; settings: 3 days, HPI-6 plus 100 μM HU (FIG. 1A)
Description: For studies utilizing the human erythroleukemia K562 cell line (ATCC), cells were grown and cultured in complete medium (RPM1 1640, 10% fetal calf serum (FCS), 100 U/ml penicillin and 0.1 mg/ml streptomycin) in a humidified incubator at 37° C., 95% air, 5% CO2. HPIs were titrated into duplicate cultures at dosage levels spanning more than 100-fold differences in concentration, and incubated from 24 to 96 hours prior to harvesting and quantitation of F-cells and HbF levels by flow cytometry.
Each PCR run included a standard curve and water blank. In addition, a melt curve was run after completion of each PCR run to assess the specificity of the amplification, γ-globin gene expression was normalized relative to the expression level of 18S ribosomal RNA for each sample.

Row | SMILES | HbF expression together with HU ([1]; 20 μM HPI-1 with HU (FIGS. 5A, 5B)) | HbF expression compared to vehicle control (percent F-cells or MFI for HbF) ([1]; 20 μM, triplicate (FIGS. 5A, 5B)) | increase in F-cells over untreated cultures, combination with HU [1] [%] | γ-globin expression with added hydroxyurea (γ-globin)
1 | O=C(O)CNC(=O)c1nc(Cl)c2ccccc2c1O [HPI-1, N-((1-chloro-4-hydroxy-isoquinoline-3-carbonyl)-amino)-acetic acid] | additive to the effects of HU | increased HbF expression | 58 | –
2 | O=C(O)CNC(=O)c1ncc2cc(Sc3ccccc3)ccc2c1O [HPI-6, [(4-Hydroxy-7-phenylsulfanyl-isoquinoline-3-carbonyl)-amino]-acetic acid] | – | – | – | augmented
3 | O=C(O)CNC(=O)c1ncc2cc(Br)ccc2c1O [HPI-2, [(7-Bromo-4-hydroxy-isoquinoline-3-carbonyl)-amino]-acetic acid] | – | – | 29 | –

Reference: patent US20070185045A1, “Inhibitors of 2-oxoglutarate dioxygenase as gamma globin inducers” (priority 2006, published 2007)
